According to patent US20140286906A1, “USE OF IGF-1 IN THE MODULATION OF TREG CELL ACTIVITY AND THE TREATMENT AND PREVENTION OF AUTOIMMUNE DISORDERS OR DISEASES” (priority 2011, published 2014):

Legend:
CD25+ splenic CD4+ cells = experiment: in vitro expansion of FACS-sorted splenic CD4+CD25+ cells; type: cell-based, murine; conditions: TCR stimulation with anti-CD3 and anti-CD28 antibodies
Description: In a preferred embodiment for expanding Treg cells in vitro/ex vivo, IGF-1 is added at a certain concentration (e.g. between 1 and 100 ng/ml) in a medium that allows for the cells to survive and grow (e.g. in mice, RPM1 1640 plus 10% fetal calf serum plus other additives including beta-mercaptoethanol, Sodium Pyruvate, Penicillin/Streptomycin, L-Glutamine or equivalent defined media). Additionally, T cells are stimulated with anti-CD3. The costimulatory agent is an antibody or ligand specific for a TCR costimulator, such as CD28 (like in example 1) or GITR, as described below.
In animal experiments, the population is isolated normally from murine spleen (but also could be isolated from other tissues, like for example but not restricted to bone marrow, adipose tissue, cord blood derived mononuclear cell, thymus, or peripheral blood) and is sorted using different markers (e.g., CD4 and CD25). This population is defined as CD4+CD25+ and includes the regulatory cells. This population is then treated in the above-mentioned medium in the presence of IGF-1. After several days of culture part of the cells are counted, fixed, permeabilized and analyzed by flow cytometry using an anti-FOXP3 antibody in combination with the same extracellular markers (CD4 and CD25). This allows for the determination of the absolute number of FOXP3 positive cells present in the culture. […]

[1] = test system: proinflamatory subsets Th1 (IFN-gamma+) and Th17 (IL-17+); experiment: flow cytometry of polarized Th1 and Th17 subsets; type: cell-based; conditions: 2 day polarization, 3 day incubation with recombinant IGF-1
Description: To determine the effect of IGF-1 in the regulatory subset in vitro (cf. FIG. 4) the number of FOXP3 positive cells is determined by flow cytometric analysis. To analyze other subsets, like the proinflammatory Th1 and Th17 subsets, a similar approach is used but the number of interferon-gamma (Th1) and IL-17 (Th17) positive cells is determined. Additionally, to evaluate the number of proliferating cells at a given moment cells are stained using the intracellular marker Ki67, which is expressed only in cycling cells. The combination of a specific lineage marker (e.g., Foxp3, IFN-g, IL-17) with Ki67 allows for the determination at a given moment of the cells belonging to a certain subset and their proliferative status.
An important aspect regarding the immunomodulatory properties of IGF-1 is the specificity of the effect for a certain cellular subset, in this case Tregs. If IGF-1 was a general anabolic factor affecting equally all subsets, it would no affect the balance of pro-inflammatory/anti-inflammatory players. In order to test the hypothesis that IGF-1 induces immune tolerance by specifically affecting the suppressive function, CD4 positive […] cells were polarized for two days into the IFN-gamma secreting Th1 subset and the IL-17 secreting Th17 subset and then incubated with IGF-1.

[2] = test system: experimental autoimmune encephalomyelitis (EAE); type: in vivo
Description: Regarding EAE, clinical severity of the disease is scored using a grading score from 0 to 5, where 0 means no clinical signs and 5 means a moribund paralysed mouse. As the disease progresses the body is paralysed progressively from tail to upper limbs. In these experiments the protocol described by Stromnes and Goverman (2006) is used.
Shortly, single cell suspensions are prepared from the […] and spinal cord. The resulting cells are stained with anti-CD4 antibodies and separated using fluorescent-activated cell sorting. RNA is then extracted and purified and serves as a template for a quantitative RT-PCR reaction with Taqman probes. Finally, the relative amount of each mRNA compared to a house-keeping gene (Hprt) is determined.
Based on these and our previous observations, the inventors hypothesized that systemic and prolonged delivery of IGF-1 in mice developing EAE would increase and correctly localized Tregs and thus positively affect the course of the disease. The inventors therefore implanted subcutaneously the IGF-1 delivery devices and induced EAE in mice. […] In order to determine if the amelioration of the disease was associated with an increase in T regulatory function, the inventors performed immunohistochemical analysis to determine the number and localization of T regulatory cells in the spinal cord at the early stages of the disease. […] There was therefore a negative correlation between the number of Treg cells and the observed clinical score. Moreover, both clinical improvement and increased regulatory cell number associated with IGF-1 treatment were abolished by CTLA-4 blockade, which interferes with regulatory T cell function (FIG. 26; Herman et al., 2004).
The inventors induced EAE and mice and initiated the IGF-1 treatment when the first signs of paralysis appeared (FIG. 27).

[3] = RT-PCR day 27, compared to control mice

## Insulin-like growth factor-1 [IGF-1]
CD25+ splenic CD4+ cells
  in vitro expansion of CD25 positive subset: consistently promoted the in vitro expansion
[1]
  cells expressing IFN-gamma (Th1): no effect
  cells expressing IL-17 (Th17): no effect
[2]; [3]
  Foxp3 expression in CD4 positive cells of the spinal cord: increase
  IL-10 expression in CD4 positive cells of the spinal cord: increase
  IL-17 expression in CD4 positive cells of the spinal cord: decrease
  interferon-gamma expression in CD4 positive cells of the spinal cord: decrease
[2]; early stages of the disease
  Treg cell number in the spinal cord (immunohistochemistry): increase in Treg cell number
[2]; mouse, in vivo
  detrimental effect in EAE: never showed a detrimental effect
[2]; prophylactic or therapeutic manner, n=34, P=0.028
  mortality: significantly reduced mortality
[2]; prophylactic: delivery device implanted day -3, immunization day 0, 4 weeks, n=13
  clinical outcome (clinical grading): improved clinical outcome
[2]; therapeutic: applied after onset of disease (day 11), P<0.05 from day 13
  clinical severity: reduced clinical severity
